A word on the inhibition: it is the relative decrease from the control value, in per cent.

This test deals with Pyricularia oryzae. Description: Antifungal activity against Pyricularia oryzae assessed as inhibition of spore germination at 10 ppm. The format is functional.

Take `CC1(C)COC2=C(C1)C(=O)C(=O)c1ccccc12` [RHINACANTHONE]: the inhibition at 10 ppm stood at 100%.

Values taken from ChEMBL document CHEMBL1159296, “A Revised Structure for Rhinacanthone” (1995).
